Measured values taken from PubChem BioAssay (NCI).
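Following 48 hours of exposure in 96-well plates, responses at five concentrations were used to interpolate endpoints linearly. GI50 marks 50% less growth. The concentration for full growth arrest is given as TGI.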

Assays:
Assay in all cases: NCI tumour cell line growth inhibition, 48 h
[1] = tested on: 786-0 renal
[2] = tested on: A498 renal
[3] = tested on: A549 NSCLC
[4] = tested on: ACHN renal
[5] = tested on: BT-549 breast
[6] = tested on: CAKI-1 renal
[7] = tested on: CCRF-CEM leukemia
[8] = tested on: COLO 205 colon
[9] = tested on: DU-145 prostate
[10] = tested on: EKVX NSCLC
[11] = tested on: HCC-2998 colon
[12] = tested on: HCT-116 colon
[13] = tested on: HCT-15 colon
[14] = tested on: HL-60(TB) leukemia
[15] = tested on: HOP-62 NSCLC
[16] = tested on: HOP-92 NSCLC
[17] = tested on: HS 578T breast
[18] = tested on: HT29 colon
[19] = tested on: IGROV1 ovarian
[20] = tested on: K-562 leukemia
[21] = tested on: KM12 colon
[22] = tested on: LOX IMVI melanoma
[23] = tested on: M14 melanoma
[24] = tested on: MCF7 breast
[25] = tested on: MDA-MB-231 breast
[26] = tested on: MDA-MB-435
[27] = tested on: MOLT-4 leukemia
[28] = tested on: NCI-H226 lung
[29] = tested on: NCI-H23 lung
[30] = tested on: NCI-H460 lung
[31] = tested on: NCI-H522 lung
[32] = tested on: NCI/ADR-RES ovarian
[33] = tested on: OVCAR-3 ovarian
[34] = tested on: OVCAR-4 ovarian
[35] = tested on: OVCAR-5 ovarian
[36] = tested on: OVCAR-8 ovarian
[37] = tested on: PC-3 prostate
[38] = tested on: RPMI-8226 leukemia
[39] = tested on: RXF 393 renal
[40] = tested on: SF-268 CNS
[41] = tested on: SF-295 CNS
[42] = tested on: SK-MEL-2 melanoma
[43] = tested on: SK-MEL-28 melanoma
[44] = tested on: SK-MEL-5 melanoma
[45] = tested on: SK-OV-3 ovarian
[46] = tested on: SN12C renal
[47] = tested on: SNB-19 CNS
[48] = tested on: SNB-75 CNS
[49] = tested on: SR leukemia
[50] = tested on: SW-620 colon
[51] = tested on: T-47D breast
[52] = tested on: TK-10 renal
[53] = tested on: U251 CNS
[54] = tested on: UACC-257 melanoma
[55] = tested on: UACC-62 melanoma
[56] = tested on: UO-31 renal
[57] = tested on: MALME-3M melanoma
[58] = tested on: SF-539 CNS

Cn1c(=O)c2c(nc3n(Cc4ccccc4)c(=O)c(NCCCBr)cn23)n(C)c1=O
TGI [1]: > 100 µM | TGI [2]: > 100 µM | TGI [3]: > 100 µM | TGI [4]: > 100 µM | TGI [5]: > 100 µM | TGI [6]: > 100 µM | TGI [7]: > 100 µM | TGI [8]: > 100 µM | TGI [9]: > 100 µM | TGI [10]: > 100 µM | TGI [11]: > 100 µM | TGI [12]: > 100 µM | TGI [13]: > 100 µM | TGI [14]: > 100 µM | TGI [15]: > 100 µM | TGI [16]: 58.5 µM | TGI [17]: > 100 µM | TGI [18]: > 100 µM | TGI [19]: > 100 µM | TGI [20]: > 100 µM | TGI [21]: > 100 µM | TGI [22]: > 100 µM | TGI [23]: > 100 µM | TGI [24]: > 100 µM | TGI [25]: > 100 µM | TGI [26]: > 100 µM | TGI [27]: > 100 µM | TGI [28]: > 100 µM | TGI [29]: > 100 µM | TGI [30]: > 100 µM | TGI [31]: > 100 µM | TGI [32]: > 100 µM | TGI [33]: > 100 µM | TGI [34]: > 100 µM | TGI [35]: > 100 µM | TGI [36]: > 100 µM | TGI [37]: > 100 µM | TGI [38]: > 100000 nM | TGI [39]: > 100 µM | TGI [40]: > 100 µM | TGI [41]: > 100 µM | TGI [42]: > 100 µM | TGI [43]: > 100 µM | TGI [44]: > 100000 nM | TGI [45]: 97.3 µM | TGI [46]: > 100 µM | TGI [47]: > 100 µM | TGI [48]: 97.7 µM | TGI [49]: > 100 µM | TGI [50]: > 100 µM | TGI [51]: > 100 µM | TGI [52]: > 100 µM | TGI [53]: > 100 µM | TGI [54]: > 100 µM | TGI [55]: > 100 µM | TGI [56]: > 100 µM

Cc1ccc(-c2csc(NC(=O)CN3CCN(c4cc5c(cc4F)c(=O)c(C(=O)O)cn5C4CC4)CC3)n2)cc1
GI50 [1]: 500 nM | TGI [1]: 15.2 µM | GI50 [2]: 1020 nM | TGI [2]: 10.3 µM | GI50 [3]: 433 nM | TGI [3]: 13.9 µM | GI50 [4]: 2580 nM | TGI [4]: 14.3 µM | GI50 [5]: 358 nM | TGI [5]: 10.7 µM | GI50 [7]: 569 nM | TGI [7]: > 100 µM | GI50 [8]: 1660 nM | TGI [8]: 3.75 µM | GI50 [9]: 513 nM | TGI [9]: > 100 µM | GI50 [10]: 1530 nM | TGI [10]: 23.9 µM | GI50 [11]: 2040 nM | TGI [11]: > 100 µM | GI50 [12]: 348 nM | TGI [12]: 14.8 µM | GI50 [13]: 441 nM | TGI [13]: > 100 µM | GI50 [14]: 1470 nM | TGI [14]: 3.94 µM | GI50 [15]: 393 nM | TGI [15]: 14.6 µM | GI50 [16]: 1130 nM | TGI [16]: 5.13 µM | GI50 [17]: 749 nM | TGI [17]: 31.7 µM | GI50 [18]: 326 nM | TGI [18]: 6.91 µM | GI50 [19]: 739 nM | TGI [19]: 17 µM | GI50 [20]: 771 nM | TGI [20]: > 100 µM | GI50 [21]: 508 nM | TGI [21]: > 100 µM | GI50 [22]: 482 nM | TGI [22]: 29.2 µM | GI50 [23]: 1630 nM | TGI [23]: 32.9 µM | GI50 [57]: 1750 nM | TGI [57]: 7.14 µM | GI50 [24]: 638 nM | TGI [24]: > 100 µM | GI50 [25]: 2080 nM | TGI [25]: 13.7 µM | GI50 [26]: 1770 nM | TGI [26]: > 100 µM | GI50 [27]: 1230 nM | TGI [27]: > 100 µM | GI50 [28]: 2510 nM | TGI [28]: 9.41 µM | GI50 [29]: 390 nM | TGI [29]: 13.3 µM | GI50 [30]: 368 nM | TGI [30]: 17.1 µM | GI50 [31]: 322 nM | TGI [31]: 3.09 µM | GI50 [32]: 3.06 µM | TGI [32]: 34 µM | GI50 [33]: 457 nM | TGI [33]: 15.7 µM | GI50 [34]: 2380 nM | TGI [34]: > 100 µM | GI50 [35]: 3.48 µM | TGI [35]: 39.8 µM | GI50 [36]: 388 nM | TGI [36]: 11.7 µM | GI50 [37]: 504 nM | TGI [37]: > 100 µM | GI50 [38]: 331 nM | TGI [38]: 1470 nM | GI50 [39]: 633 nM | TGI [39]: 17.8 µM | GI50 [40]: 493 nM | TGI [40]: > 100 µM | GI50 [41]: 1150 nM | TGI [41]: 13.9 µM | GI50 [58]: 819 nM | TGI [58]: 18.2 µM | GI50 [42]: 1330 nM | TGI [42]: 4.09 µM | GI50 [43]: 1940 nM | TGI [43]: > 100 µM | GI50 [44]: 1020 nM | TGI [44]: 2890 nM | GI50 [45]: 1300 nM | TGI [45]: 5.52 µM | GI50 [46]: 413 nM | TGI [46]: 15.4 µM | GI50 [47]: 870 nM | TGI [47]: 27 µM | GI50 [48]: 448 nM | TGI [48]: 11.2 µM | GI50 [49]: 645 nM | TGI [49]: 6.87 µM | GI50 [50]: 950 nM | TGI [50]: > 100 µM | GI50 [51]: 1160 nM | TGI [51]: 6.02 µM | GI50 [53]: 388 nM | TGI [53]: 13.4 µM | GI50 [54]: 1910 nM | TGI [54]: 6.18 µM | GI50 [55]: 1260 nM | TGI [55]: 13.1 µM | GI50 [56]: 1040 nM | TGI [56]: 41.1 µM
